PubChem BioAssay (NCI)
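Exposure lasted 48 hours, with cells grown in 96-well plates and compounds tested at five concentrations. Abbreviation: GI50, concentration required for 50% inhibition of growth. TGI: concentration producing complete growth inhibition.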

Assays:
Assay in all cases: DTP human tumour cell line panel, 48 h
EKVX NSCLC = tested on: EKVX NSCLC
ACHN renal = tested on: ACHN renal
PC-3 prostate = tested on: PC-3 prostate
MALME-3M melanoma = tested on: MALME-3M melanoma
MOLT-4 leukemia = tested on: MOLT-4 leukemia
A498 renal = tested on: A498 renal
HOP-92 NSCLC = tested on: HOP-92 NSCLC
HT29 colon = tested on: HT29 colon
SNB-19 CNS = tested on: SNB-19 CNS
MCF7 breast = tested on: MCF7 breast

Structure (SMILES) | GI50 (EKVX NSCLC) | TGI (EKVX NSCLC) | GI50 (ACHN renal) | TGI (ACHN renal) | GI50 (PC-3 prostate) | TGI (PC-3 prostate) | GI50 (MALME-3M melanoma) | TGI (MALME-3M melanoma) | GI50 (MOLT-4 leukemia) | TGI (MOLT-4 leukemia) | GI50 (A498 renal) | TGI (A498 renal) | GI50 (HOP-92 NSCLC) | TGI (HOP-92 NSCLC) | GI50 (HT29 colon) | TGI (HT29 colon) | GI50 (SNB-19 CNS) | TGI (SNB-19 CNS) | GI50 (MCF7 breast) | TGI (MCF7 breast)
C[C@@H](CS[As](C)C)C(=O)N1CCC[C@H]1C(=O)O | 723 nM | 8530 nM | 113 nM | 1200 nM | 284 nM | 1250 nM | 164 nM | 1150 nM | 93.3 nM | 3690 nM | 804 nM | 9670 nM | 51.4 nM | 542 nM | 715 nM | > 100000 nM | 3760 nM | 31200 nM | 249 nM | 2030 nM
COc1ccc(/C=C2\COc3ccc(O)c(O)c3C2=O)cc1OC | 2760 nM | 18800 nM | 1320 nM | 2750 nM | 1530 nM | 6820 nM | 1330 nM | 3200 nM | 1050 nM | 9130 nM | 2470 nM | 8280 nM | 2180 nM | 5910 nM | 2120 nM | 5200 nM | 2060 nM | 7430 nM | 682 nM | > 100000 nM
COc1c(B(O)O)cccc1-c1nc2ccc3[nH]ncc3c2c2c1CCCC2 | 2650 nM | 15900 nM | 1770 nM | 16800 nM | 2410 nM | 40600 nM | 3390 nM | 6860 nM | 1570 nM | > 34600 nM | 491 nM | 3880 nM |  | 6560 nM | 3170 nM | 16400 nM | 2680 nM | 28100 nM | 2040 nM | 13000 nM
Cc1ccc(NC(=S)C#N)c(C)c1 |  | > 100000 nM |  | > 100000 nM |  | > 100000 nM |  | > 94900 nM |  | > 100000 nM |  | > 100000 nM |  | > 100000 nM |  | > 100000 nM |  | > 100000 nM |  | > 100000 nM
CC(C)(C)C(=O)c1c(C(F)(F)F)n([O-])c2cc(Cl)c(Cl)cc2[n+]1=O | 1910 nM | 3400 nM | 389 nM | 782 nM | 1580 nM | 3030 nM | 1340 nM | 2730 nM | 437 nM | 987 nM | 1330 nM | 2600 nM | 1470 nM | 2780 nM | 192 nM | 546 nM | 609 nM | 1280 nM | 168 nM | 566 nM
C[C@H]1COCCN1c1nc(-c2cnc(N)cc2C(F)F)nc(N2CCOCC2)n1 | 178 nM | 2000 nM | 207 nM | > 100000 nM | 98.5 nM | > 100000 nM | 104 nM | 721 nM | 225 nM | 33000 nM | 30.1 nM | 164 nM | 19.7 nM | 197 nM | 176 nM | > 100000 nM | 300 nM | 13800 nM | 48.7 nM | > 100000 nM
Cc1cc(Cl)nc(N(CCCNc2ccnc3cc(Cl)ccc23)Cc2cccs2)n1 | 1990 nM | 12700 nM | 2000 nM | 11500 nM | 1830 nM | 13700 nM | 1640 nM | 3460 nM | 1770 nM | 11800 nM | 714 nM | 6990 nM | 1740 nM | 7780 nM | 570 nM | 4040 nM | 2350 nM | 13500 nM | 1740 nM | 6850 nM
CCN(CC)S(=O)(=O)c1cccc(-c2ccc3c(NC(=O)C4CC4)n[nH]c3c2)c1 | 2190 nM | > 6250 nM | 3540 nM | > 6250 nM | 2110 nM | > 6250 nM | 1460 nM | > 6250 nM | 1750 nM | > 6250 nM | 1610 nM | > 6250 nM | 2580 nM | > 6250 nM | 2300 nM | > 6250 nM | 3130 nM | > 6250 nM | 1190 nM | > 6250 nM
c1cc(C2CCCCC2)ccc1-c1cnc2nonc2n1 | 1520 nM | 3650 nM | 1140 nM | 2390 nM | 789 nM | 2560 nM | 1180 nM | 2660 nM | 393 nM | > 56500 nM | 565 nM | 2320 nM | 422 nM | 2120 nM | 603 nM | 3270 nM | 1460 nM | 3550 nM | 393 nM | 3210 nM
CSc1nnc(-c2cc3c([nH]c4ccccc43)c(-c3cccc(O)c3)n2)n1-c1ccc(C)cc1 | 4510 nM | > 100000 nM | 2110 nM | 6060 nM | 3580 nM | 23000 nM | 1880 nM | 5400 nM | 3650 nM | > 100000 nM | 1730 nM | 7140 nM | 1750 nM | 7590 nM | 3390 nM | > 100000 nM | 3710 nM | 28600 nM | 2500 nM | > 100000 nM
